In ChEMBL document CHEMBL1132868, “A new class of highly cytotoxic diketopiperazines” (Bioorg Med Chem Lett, 2000):

How the values were obtained:
L1210 = assay: The compound was tested for cytotoxic activity using standard L1210 cell based cytotoxicity assay; type: functional; conditions: Mus musculus
Nucleic Acid = assay: Compound was evaluated for DNA (poly[dA]-poly[dT]) binding affinity; type: nucleic-acid assay

Row | K (Nucleic Acid) | Structure (SMILES) | IC50 (L1210)
1 | – | CC(C)(C)OC(=O)Nc1ccc2c(c1)cc1c(=O)n3c(cc4cc(NC(=O)OC(C)(C)C)ccc43)c(=O)n12 | 29 µM
2 | 203000 | CN(C)CCCC(=O)Nc1ccc2c(c1)cc1c(=O)n3c(cc4cc(NC(=O)CCCN(C)C)ccc43)c(=O)n12 | 0.034 µM
3 | – | CN(C)CCCC(=O)Nc1csc(C(=O)Nc2ccc3c(c2)cc2c(=O)n4c(cc5cc(NC(=O)c6csc(NC(=O)CCCN(C)C)n6)ccc54)c(=O)n23)n1 | 4 µM
4 | – | Nc1ccc2c(c1)cc1c(=O)n3c(cc4cc(N)ccc43)c(=O)n12 | 30 µM
5 | – | CN(C)CCCC(=O)Nc1ccc(C(=O)Nc2ccc3c(c2)cc2c(=O)n4c(cc5cc(NC(=O)c6ccc(NC(=O)CCCN(C)C)cc6)ccc54)c(=O)n23)cc1 | 7 µM
